What all share (format): functional
The species named for assay [1] is Rattus norvegicus. The experiment in a line: Muscle relaxant activity in rat assessed as reduction in electrically stimulated phrenic nerve-induced diaphragm contraction at 50 ug/ml.
The species entered for assay [2] is Rattus norvegicus. Put plainly: Muscle relaxant activity in rat assessed as reduction in electrically stimulated phrenic nerve-induced diaphragm contraction at 5.1 ug/ml. Further details: scale not given: the % may be the effect or the level left.
Assay [3] is filed under the species Rattus norvegicus. The experiment in a line: Muscle relaxant activity in rat assessed as reduction in electrically stimulated phrenic nerve-induced diaphragm contraction at 5.1 ug/ml in presence of synstigmine.

Molecules are shown by their SMILES. Calls of active or inactive are those of the source. No cut-off for these calls is given here.

Turning to `C[C@@H]1c2cnccc2CC2c3c(c4ccccc4n31)CCN2C` (stereo partly drawn), the outcome in assay [1] was inactive. As to `C[C@@H]1c2cnccc2C=C2c3c(c4ccccc4n31)CCN2C` [DECUSSINE], the Activity in assay [2] is reported as 50%. Also, the outcome in assay [3] was Active.

The values above are taken from ChEMBL document CHEMBL1151368, “Some new decussine-type alkaloids from Strychnos decussata, Strychnos dale and Strychnos elaecocarpa” (1981).
